The values below come from ChEMBL document CHEMBL6087400, “Synthesis and Biological Evaluation of New Chalcogen Semicarbazone (S, Se) and Their Azole Derivatives against Chagas Disease” (J Med Chem, 2024).

In data set [1] the test system is C2C12. In words: Cytotoxicity against mouse C2C12 cells assessed as reduction in cell viability at 10 uM incubated for 72 hrs by DAPI staining based microscopic analysis relative to control. The class given is toxicity. The settings on record: c2c12, 72 h.
For another data set, the system named is Trypanosoma cruzi. In words: Anti-trypanosomal activity against Trypanosoma cruzi CAI/72 infected in mouse C2C12 cells at 10 uM incubated for 48 hrs relative to control. The class given is functional.
The target in data set [2] is Cruzipain (Trypanosoma cruzi) (UniProt P25779). In words: Inhibition of Trypanosoma cruzi cruzain using Z-FR-AMC as substrate measured after 10 mins relative to control.
Data set [3] in a line: Selectivity index, ratio of CC50 for mouse C2C12 cells to EC50 for Trypanosoma cruzi CAI/72 intracellular amastigotes. It is filed as toxicity, cell-based. As to conditions: read-out: Selectivity Index.
Data set [4] can be described thus: Antioxidant activity assessed as inhibition of DPPH radical scavenging activity at 0.06 mg/ml measured after 2 hrs by absorbance based analysis relative to control. The class given is functional. More on the design: scale not given: the % may be the effect or the level left. (Loss of DPPH colour is used to gauge radical scavenging.)
The nature of data set [5]: Antioxidant activity assessed as inhibition of DPPH radical scavenging activity at 0.03 mg/ml measured after 2 hrs by absorbance based analysis relative to control. Further details: scale not given: the % may be the effect or the level left. The class given is functional.
Data set [6] is described as follows: Antioxidant activity assessed as inhibition of DPPH radical scavenging activity at 0.015 mg/ml measured after 2 hrs by absorbance based analysis relative to control. It is filed as functional. More on the design: scale not given: the % may be the effect or the level left.
Data set [7] in a line: Half life in female Balb/c mouse at 50 mg/kg, po by mass spectrometry. As to conditions: in vivo. It is filed as ADME, organism-based.
Data set [8] relates to C2C12. In words: Cytotoxicity against mouse C2C12 cells assessed as reduction in cell viability at 40 uM incubated for 72 hrs by DAPI staining based microscopic analysis relative to control. The class given is toxicity. The settings on record: c2c12, 72 h.
For data set [9], the system named is C2C12. In words: Cytotoxicity against mouse C2C12 cells assessed as reduction in cell viability at 3 uM incubated for 72 hrs by DAPI staining based microscopic analysis relative to control. It is filed as toxicity. The settings on record: c2c12, 72 h.

Molecules are shown by their SMILES. The source made the active and inactive calls. The calls are words filed in the database; no cut-off is given here. Where only a bound is given, the exact number is not on record here.

Chain of Cruzipain (Trypanosoma cruzi) (P25779 123-467 limits assumed): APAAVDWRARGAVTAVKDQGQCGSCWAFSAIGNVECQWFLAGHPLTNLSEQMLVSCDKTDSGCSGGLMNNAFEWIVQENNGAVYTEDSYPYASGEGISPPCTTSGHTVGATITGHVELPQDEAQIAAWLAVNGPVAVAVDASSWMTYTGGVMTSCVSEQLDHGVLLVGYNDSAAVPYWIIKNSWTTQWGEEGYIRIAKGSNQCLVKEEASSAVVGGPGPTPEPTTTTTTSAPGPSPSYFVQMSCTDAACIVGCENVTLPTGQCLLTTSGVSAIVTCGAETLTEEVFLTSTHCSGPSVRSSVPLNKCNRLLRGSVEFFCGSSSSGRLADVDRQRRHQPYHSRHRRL

As a reminder, the inhibition is how much of the control response was suppressed. With `C/C(=N\NC(N)=S)c1ccc(C#N)cc1`, the Activity in the data set on C2C12 [1] is on record as greater than 100%; with Trypanosoma cruzi, 31.58%. The same molecule showed an inhibition in [2] of 98.8%.

For the molecule `C/C(=N\NC(N)=S)c1ccsc1`, the Activity was greater than 100% in the data set with C2C12 [1] and 10.89% in the data set on Trypanosoma cruzi. In [2], this molecule came in with an inhibition of 62.8%.

As for `C/C(=N\Nc1nc(C)c[se]1)c1cccc(Cl)c1`, the selectivity ratio in data set [3] was greater than 19.

One may read the half-life as the time in which the quantity being followed falls by half. On to `C/C(=N\Nc1nc(C)c[se]1)c1cccc([N+](=O)[O-])c1.Cl`, for which the selectivity ratio in data set [3] was greater than 32.5. Also, the Activity was 78.3% in [4], 78% in data set [5] and 77.3% in data set [6]. The molecule further showed a half-life in data set [7] of 1 h.

Turning to `C/C(=N\NC(N)=S)C12CC3C[C@H](C1)C[C@H](C3)C2`, the Activity with C2C12 [1] is listed as greater than 100%; in the data set on Trypanosoma cruzi, 38.73%.

In the case of `C/C(=N\NC(N)=[Se])c1ccc(Br)cc1`, the selectivity ratio in data set [3] is greater than 13.

In the case of `O=C1O[C@H]([C@@H](O)CO)C(O)=C1O`, the Activity in [4] is 80.3%; in data set [5], 80.3%; in data set [6], 65.3%.

Take `O=C(Cn1ccnc1[N+](=O)[O-])NCc1ccccc1` [BENZNIDAZOLE]: the selectivity ratio in data set [3] is greater than 6.91. The Activity in the data set with C2C12 [8] is reported as greater than 100%.

On to `C/C(=N\Nc1nc(C)c[se]1)C12CC3CC(CC(C3)C1)C2`, for which the inhibition result in data set [2] is “inactive”.

In the case of `CN1CCN(C(=O)N[C@@H](Cc2ccccc2)C(=O)N[C@H](/C=C/S(=O)(=O)c2ccccc2)CCc2ccccc2)CC1` [K-777], the Activity in the data set with C2C12 [9] is listed as greater than 100%.

With `COc1ccc(/C(C)=N/NC(N)=[Se])c(OC)c1`, the result with Trypanosoma cruzi was inactive.

Regarding `C/C(=N\Nc1nc(C)cs1)c1ccc(C(F)(F)F)cc1`, in the data set with Trypanosoma cruzi, the outcome was inactive.

With `C/C(=N\Nc1nc(C)cs1)c1ccc([N+](=O)[O-])cc1`, the result in the data set with Trypanosoma cruzi was inactive.

As for `C/C(=N\NC(N)=S)[C@]12CC3C[C@@H](C[C@H](C3)C1)C2`, the inhibition in data set [2] worked out at 5.06%.

In the case of `C/C(=N\NC(N)=S)c1cccc(Cl)c1`, in data set [3], the selectivity ratio is roughly 1.

For `C/C(=N\NC(N)=[Se])c1ccc(F)c(F)c1`, in the data set with Trypanosoma cruzi, the outcome was inactive.

On to `COc1cccc(/C(C)=N/Nc2nc(C)c[se]2)c1`, for which the selectivity ratio in data set [3] was greater than 3.75.

For the molecule `COc1ccc(/C(C)=N/Nc2nc(C)c[se]2)c(OC)c1`, in data set [2], the inhibition entry is “inactive”.

Take `C/C(Cc1cccc(Cl)c1)=N\NC(N)=S`: the selectivity ratio in data set [3] was greater than 3.42.

Consider `C/C(=N\Nc1nc(C)c[se]1)c1ccsc1`, for which, in [3], the selectivity ratio was greater than 2.68. The inhibition entry in [2] was “inactive”.
